≈ marks a conversion by molar mass, not a printed value.
Tests used:
Staphylococcus aureus [1] = assay: Antibacterial activity against Staphylococcus aureus ATCC 29213 measured after 16 to 18 hrs by CLSI method; format: functional; settings: time 16-18 hrs
Staphylococcus aureus [2] = assay: Antibacterial activity against methicillin-resistant Staphylococcus aureus clinical isolate MRSA-11 measured after 16 to 18 hrs by CLSI method; format: functional; settings: time 16-18 hrs
Staphylococcus aureus [3] = assay: Antibacterial activity against methicillin-resistant Staphylococcus aureus clinical isolate MRSA-13 measured after 16 to 18 hrs by CLSI method; format: functional; settings: time 16-18 hrs
Staphylococcus aureus [4] = assay: Antibacterial activity against methicillin-resistant Staphylococcus aureus clinical isolate MRSA-14 measured after 16 to 18 hrs by CLSI method; format: functional; settings: time 16-18 hrs
Staphylococcus aureus [5] = assay: Antibacterial activity against methicillin-resistant Staphylococcus aureus clinical isolate MRSA-16 measured after 16 to 18 hrs by CLSI method; format: functional; settings: time 16-18 hrs
Staphylococcus aureus [6] = assay: Antibacterial activity against methicillin-resistant Staphylococcus aureus clinical isolate MRSA-17 measured after 16 to 18 hrs by CLSI method; format: functional; settings: time 16-18 hrs
Staphylococcus aureus [7] = assay: Antibacterial activity against methicillin-resistant Staphylococcus aureus clinical isolate MRSA-18 measured after 16 to 18 hrs by CLSI method; format: functional; settings: time 16-18 hrs
Staphylococcus aureus [8] = assay: Antibacterial activity against methicillin-resistant Staphylococcus aureus clinical isolate MRSA-20 measured after 16 to 18 hrs by CLSI method; format: functional; settings: time 16-18 hrs
Staphylococcus aureus [9] = assay: Antibacterial activity against methicillin-resistant Staphylococcus aureus clinical isolate MRSA-21 measured after 16 to 18 hrs by CLSI method; format: functional; settings: time 16-18 hrs
Staphylococcus aureus [10] = assay: Antibacterial activity against methicillin-resistant Staphylococcus aureus clinical isolate MRSA-22 measured after 16 to 18 hrs by CLSI method; format: functional; settings: time 16-18 hrs
Staphylococcus aureus [11] = assay: Antibacterial activity against methicillin-resistant Staphylococcus aureus clinical isolate MRSA-23 measured after 16 to 18 hrs by CLSI method; format: functional; settings: time 16-18 hrs
Escherichia coli = assay: Antibacterial activity against Escherichia coli ATCC25922 measured after 16 to 18 hrs by CLSI method; format: functional; settings: time 16-18 hrs
[12] = Hemolytic activity in sheep erythrocytes incubated for 1 hr by absorbance based analysis; format: toxicity, cell-based, Ovis aries, Erythrocyte
[13] = Selectivity index, ratio of HC50 for hemolytic activity in sheep erythrocytes to MIC for antibacterial activity against Staphylococcus aureus ATCC 29213; format: toxicity, cell-based; settings: read-out: Selectivity Index

Row | SMILES | MIC (Staphylococcus aureus [1]) | MIC (Staphylococcus aureus [2]) | MIC (Staphylococcus aureus [3]) | MIC (Staphylococcus aureus [4]) | MIC (Staphylococcus aureus [5]) | MIC (Staphylococcus aureus [6]) | MIC (Staphylococcus aureus [7]) | MIC (Staphylococcus aureus [8]) | MIC (Staphylococcus aureus [9]) | MIC (Staphylococcus aureus [10]) | MIC (Staphylococcus aureus [11]) | MIC (Escherichia coli) | HC50 at 1 h [12] | selectivity ratio [13]
1 | COc1cc(OCCCN2CCCCC2)c(CC=C(C)C)c2c1C(=O)CC(c1ccc(OCCCN3CCCCC3)cc1)O2 (configuration not stated) | 64 µg/mL (≈ 106 µM) | > 128 µg/mL | > 128 µg/mL | > 128 µg/mL | 32 µg/mL (≈ 52.9 µM) | > 128 µg/mL | > 128 µg/mL | > 128 µg/mL | > 128 µg/mL | > 128 µg/mL | > 128 µg/mL | > 128 µg/mL | 467 µg/mL | 7.3
2 | COc1cc(OCCCCN2CCCCC2)c(CC=C(C)C)c2c1C(=O)CC(c1ccc(OCCCCN3CCCCC3)cc1)O2 (configuration not stated) | 32 µg/mL (≈ 50.6 µM) | 16 µg/mL (≈ 25.3 µM) | 16 µg/mL (≈ 25.3 µM) | 32 µg/mL (≈ 50.6 µM) | 16 µg/mL (≈ 25.3 µM) | 16 µg/mL (≈ 25.3 µM) | 32 µg/mL (≈ 50.6 µM) | 16 µg/mL (≈ 25.3 µM) | 32 µg/mL (≈ 50.6 µM) | 16 µg/mL (≈ 25.3 µM) | 16 µg/mL (≈ 25.3 µM) | > 128 µg/mL | 199 µg/mL | > 6.2
3 | COc1cc(OCCCN2CCOCC2)c(CC=C(C)C)c2c1C(=O)CC(c1ccc(OCCCN3CCOCC3)cc1)O2 (configuration not stated) | > 128 µg/mL | > 128 µg/mL | > 128 µg/mL | > 128 µg/mL | > 128 µg/mL | > 128 µg/mL | > 128 µg/mL | > 128 µg/mL | > 128 µg/mL | > 128 µg/mL | > 128 µg/mL | > 128 µg/mL | > 1280 µg/mL | –
4 | COc1cc(OCCCCN2CCC(C)CC2)c(CC=C(C)C)c2c1C(=O)CC(c1ccc(OCCCCN3CCC(C)CC3)cc1)O2 (configuration not stated) | 16 µg/mL (≈ 24.2 µM) | 16 µg/mL (≈ 24.2 µM) | 8 µg/mL (≈ 12.1 µM) | 16 µg/mL (≈ 24.2 µM) | 8 µg/mL (≈ 12.1 µM) | 8 µg/mL (≈ 12.1 µM) | 16 µg/mL (≈ 24.2 µM) | 16 µg/mL (≈ 24.2 µM) | 8 µg/mL (≈ 12.1 µM) | 8 µg/mL (≈ 12.1 µM) | 16 µg/mL (≈ 24.2 µM) | > 128 µg/mL | > 640 µg/mL | > 40
5 | COc1cc(OCCCN2CCSCC2)c(CC=C(C)C)c2c1C(=O)CC(c1ccc(OCCCN3CCSCC3)cc1)O2 (configuration not stated) | > 128 µg/mL | > 128 µg/mL | > 128 µg/mL | > 128 µg/mL | > 128 µg/mL | > 128 µg/mL | > 128 µg/mL | > 128 µg/mL | > 128 µg/mL | > 128 µg/mL | > 128 µg/mL | > 128 µg/mL | > 640 µg/mL | –
6 | COc1cc(OCCCCCN2CCOCC2)c(CC=C(C)C)c2c1C(=O)CC(c1ccc(OCCCCCN3CCOCC3)cc1)O2 (configuration not stated) | 16 µg/mL (≈ 24.1 µM) | 16 µg/mL (≈ 24.1 µM) | 16 µg/mL (≈ 24.1 µM) | 16 µg/mL (≈ 24.1 µM) | 16 µg/mL (≈ 24.1 µM) | 16 µg/mL (≈ 24.1 µM) | 16 µg/mL (≈ 24.1 µM) | 16 µg/mL (≈ 24.1 µM) | 16 µg/mL (≈ 24.1 µM) | 8 µg/mL (≈ 12 µM) | 16 µg/mL (≈ 24.1 µM) | > 128 µg/mL | > 1280 µg/mL | > 80
7 | COc1cc(OCCCN2CCCC(C)C2)c(CC=C(C)C)c2c1C(=O)CC(c1ccc(OCCCN3CCCC(C)C3)cc1)O2 (configuration not stated) | 16 µg/mL (≈ 25.3 µM) | 32 µg/mL (≈ 50.6 µM) | 16 µg/mL (≈ 25.3 µM) | 16 µg/mL (≈ 25.3 µM) | 16 µg/mL (≈ 25.3 µM) | 8 µg/mL (≈ 12.6 µM) | 16 µg/mL (≈ 25.3 µM) | 16 µg/mL (≈ 25.3 µM) | 32 µg/mL (≈ 50.6 µM) | 16 µg/mL (≈ 25.3 µM) | 32 µg/mL (≈ 50.6 µM) | > 128 µg/mL | > 1280 µg/mL | > 80
8 | COc1cc(OCCCCN2CCCC(C)C2)c(CC=C(C)C)c2c1C(=O)CC(c1ccc(OCCCCN3CCCC(C)C3)cc1)O2 (configuration not stated) | 16 µg/mL (≈ 24.2 µM) | 8 µg/mL (≈ 12.1 µM) | 8 µg/mL (≈ 12.1 µM) | 8 µg/mL (≈ 12.1 µM) | 8 µg/mL (≈ 12.1 µM) | 8 µg/mL (≈ 12.1 µM) | 16 µg/mL (≈ 24.2 µM) | 8 µg/mL (≈ 12.1 µM) | 16 µg/mL (≈ 24.2 µM) | 8 µg/mL (≈ 12.1 µM) | 16 µg/mL (≈ 24.2 µM) | > 128 µg/mL | 120 µg/mL | > 7.5
9 | COc1cc(OCCCN2CCC(C)CC2)c(CC=C(C)C)c2c1C(=O)CC(c1ccc(OCCCN3CCC(C)CC3)cc1)O2 (configuration not stated) | 16 µg/mL (≈ 25.3 µM) | 16 µg/mL (≈ 25.3 µM) | 16 µg/mL (≈ 25.3 µM) | 16 µg/mL (≈ 25.3 µM) | 16 µg/mL (≈ 25.3 µM) | 16 µg/mL (≈ 25.3 µM) | 16 µg/mL (≈ 25.3 µM) | 16 µg/mL (≈ 25.3 µM) | 16 µg/mL (≈ 25.3 µM) | 16 µg/mL (≈ 25.3 µM) | 32 µg/mL (≈ 50.6 µM) | > 128 µg/mL | > 1280 µg/mL | > 80
10 | COc1cc(OCCCN(CC(C)C)CC(C)C)c(CC=C(C)C)c2c1C(=O)CC(c1ccc(OCCCN(CC(C)C)CC(C)C)cc1)O2 (configuration not stated) | > 128 µg/mL | 64 µg/mL (≈ 92.3 µM) | > 128 µg/mL | 64 µg/mL (≈ 92.3 µM) | > 128 µg/mL | > 128 µg/mL | > 128 µg/mL | > 128 µg/mL | 32 µg/mL (≈ 46.2 µM) | 32 µg/mL (≈ 46.2 µM) | 32 µg/mL (≈ 46.2 µM) | > 128 µg/mL | > 1280 µg/mL | –

Reference: ChEMBL document CHEMBL5505992, “Novel membrane-targeting isoxanthohumol-amine conjugates for combating methicillin-resistant Staphylococcus aureus (MRSA) infections” (Eur J Med Chem, 2024)
